Paper PMC7216583 (Parasites & Vectors, 2020)
Where a name gives a salt, the structure may show the parent alone. Read-outs that look alike come from different tables or passages of the source.

Legend:
[1] = test system: Toxoplasma gondii RH-2F tachyzoites; assay: microbe, parasite or virus in culture; settings: 72 h
β2-adrenergic receptor = target: β2-adrenergic receptor; parameters: method as in vendor brief description; settings: ref vendor brief description; cited from earlier work
[2] = target: transient receptor potential vanilloid-1 (TRPV1); parameters: method as in vendor brief description; settings: ref vendor brief description; cited from earlier work
β3-adrenoceptor = test system: β3-adrenoceptor; parameters: method as in vendor brief description; settings: ref vendor brief description; cited from earlier work
LMP7 = test system: LMP7; parameters: method as in vendor brief description; settings: read-out: IC50 CT-L activity of 20S proteasome LMP7; ref vendor brief description; cited from earlier work
20S proteasome β5 = test system: 20S proteasome β5; parameters: method as in vendor brief description; settings: read-out: IC50 CT-L activity of 20S proteasome β5; ref vendor brief description; cited from earlier work
4-hydroxylation = test system: 4-hydroxylation; parameters: method as in vendor brief description; settings: ref vendor brief description; cited from earlier work
CYP2C9 = test system: CYP2C9; parameters: method as in vendor brief description; settings: ref vendor brief description; cited from earlier work
class I PI3K = test system: class I PI3K; parameters: method as in library vendor description; settings: ref library vendor description; read-out: IC50 pan-class I PI3K; cited from earlier work
[3] = target: cannabinoid type 1 receptor; parameters: method as in vendor brief description; settings: ref vendor brief description; cited from earlier work
gastric H+, K+-ATPase = target: gastric H+, K+-ATPase; parameters: method as in vendor brief description; settings: at pH 6.5; ref vendor brief description; cited from earlier work
[4] = test system: Toxoplasma gondii RH-2F tachyzoites
myeloperoxidase = settings: read-out: IC50 myeloperoxidase; ref vendor brief description; cited from earlier work
[5] = test system: non-muscle myosin II ATPases; parameters: method as in vendor brief description; settings: ref vendor brief description; cited from earlier work
αvβ3 receptor = target: αvβ3 receptor; parameters: method as in vendor brief description; settings: ref vendor brief description; cited from earlier work
αvβ5 receptor = target: αvβ5 receptor; parameters: method as in vendor brief description; settings: ref vendor brief description; cited from earlier work
5-HT2B = test system: 5-HT2B; parameters: method as in vendor brief description; settings: ref vendor brief description; cited from earlier work
VEGFR-2 = test system: VEGFR-2; parameters: method as in vendor brief description; settings: ref vendor brief description; cited from earlier work
Flt-4 = test system: Flt-4; parameters: method as in vendor brief description; settings: ref vendor brief description; cited from earlier work
AXL = test system: AXL; parameters: method as in vendor brief description; settings: ref vendor brief description; cited from earlier work
Ret = test system: Ret; parameters: method as in vendor brief description; settings: ref vendor brief description; cited from earlier work
Kit = test system: Kit; parameters: method as in vendor brief description; settings: ref vendor brief description; cited from earlier work
Flt-1 = test system: Flt-1; parameters: method as in vendor brief description; settings: ref vendor brief description; cited from earlier work
in vitro = settings: human, Host viability (%) mean
tyrosinase = target: tyrosinase; parameters: method as in vendor brief description; settings: ref vendor brief description; cited from earlier work
PDE5 = settings: read-out: IC50 PDE5; ref vendor brief description; cited from earlier work
recombinant human mGlu2 = target: recombinant human mGlu2; parameters: method as in vendor brief description; settings: ref vendor brief description; cited from earlier work
[6] = target: recombinant human mGlu3 receptors; parameters: method as in vendor brief description; settings: ref vendor brief description; cited from earlier work
[7] = target: rat neurons expressing native mGlu2/3 receptors; parameters: method as in vendor brief description; settings: ref vendor brief description; cited from earlier work
nonsense mutation = settings: ref vendor brief description; read-out: EC50 nonsense mutation inhibition; cited from earlier work
P-glycoprotein = settings: cited from earlier work
S1P = test system: S1P; parameters: method as in vendor brief description; settings: ref vendor brief description; cited from earlier work
Pim1 = settings: read-out: IC50 Pim1; ref vendor brief description; cited from earlier work
PI3Kγ = test system: PI3Kγ; parameters: method as in vendor brief description; settings: ref vendor brief description; cited from earlier work
[8] = target: N-methyl-D-aspartate (NMDA) receptor; parameters: method as in vendor brief description; settings: ref vendor brief description; cited from earlier work
nAChR = test system: nAChR; parameters: method as in vendor brief description; settings: ref vendor brief description; cited from earlier work
sodium channel = test system: sodium channel; parameters: method as in vendor brief description; settings: ref vendor brief description; cited from earlier work
5-HT3 = target: 5-HT3; parameters: method as in vendor brief description; settings: ref vendor brief description; cited from earlier work
human muscarinic AChR M2 = target: human muscarinic AChR M2; parameters: method as in vendor brief description; settings: ref vendor brief description; cited from earlier work
human muscarinic AChR M3 = target: human muscarinic AChR M3; parameters: method as in vendor brief description; settings: ref vendor brief description; cited from earlier work
human muscarinic AChR M1 = target: human muscarinic AChR M1; parameters: method as in vendor brief description; settings: ref vendor brief description; cited from earlier work
human muscarinic AChR M4 = target: human muscarinic AChR M4; parameters: method as in vendor brief description; settings: ref vendor brief description; cited from earlier work
human muscarinic AChR M5 = target: human muscarinic AChR M5; parameters: method as in vendor brief description; settings: ref vendor brief description; cited from earlier work
JAK3 = test system: JAK3; parameters: method as in vendor brief description; settings: ref vendor brief description; cited from earlier work
[9] = target: epidermal growth factor receptor (EGFR); parameters: method as in vendor brief description; settings: ref vendor brief description; read-out: IC50 EFGR; cited from earlier work
TGM2 = test system: TGM2; parameters: method as in vendor brief description; settings: ref vendor brief description; cited from earlier work
JAK1 = test system: JAK1; parameters: method as in vendor brief description; settings: ref vendor brief description; cited from earlier work
B-Raf = test system: B-Raf; parameters: method as in vendor brief description; settings: ref vendor brief description; cited from earlier work
CSF-1R = test system: CSF-1R; parameters: method as in vendor brief description; settings: ref vendor brief description; cited from earlier work
c-Raf = test system: c-Raf; parameters: method as in vendor brief description; settings: ref vendor brief description; cited from earlier work
Abl = test system: Abl; parameters: method as in vendor brief description; settings: ref vendor brief description; read-out: IC50 Abl-1; cited from earlier work
[10] = target: H3K27 histone demethylase JMJD3/UTX; parameters: method as in vendor brief description; settings: ref vendor brief description; cited from earlier work
[11] = read-out: Parasite inhibition (%) mean, preliminary screen of compound library, mean

SMILES: CC(C)(C)NCC(O)c1cc(O)cc(O)c1 (stereo not drawn) [Terbutaline Sulfate]
- inhibition of growth at 5 µM [1, 11]: 40.1%
- IC50 (β2-adrenergic receptor): 53 nM

SMILES: CC(=O)Nc1nc2c(Oc3cc(-c4ccc(C(F)(F)F)cc4)ncn3)cccc2s1 [AMG-517]
- inhibition of growth at 5 µM [1, 11]: 0.6%
- IC50 [2]: < 10 nM

SMILES: Nc1nc(CC(=O)Nc2ccc(CCNC[C@H](O)c3ccccc3)cc2)cs1 [Mirabegron (YM178)]
- EC50 (β3-adrenoceptor): 22.4 nM
- inhibition of growth at 5 µM [1, 11]: 3.8%

SMILES: COC[C@H](NC(=O)c1cnc(C)s1)C(=O)N[C@@H](COC)C(=O)N[C@@H](Cc1ccccc1)C(=O)C1(C)CO1 (stereo partly drawn) [Oprozomib (ONX 0912)]
- inhibition of growth at 5 µM [1, 11]: 9%
- IC50 (LMP7): 82 nM
- IC50 (20S proteasome β5): 36 nM

SMILES: CCCSc1nc(N[C@@H]2C[C@H]2c2ccc(F)c(F)c2)c2nnn([C@@H]3C[C@H](OCCO)[C@@H](O)[C@H]3O)c2n1 [Ticagrelor]
- IC50 (CYP2C9): 10500 nM
- inhibition of growth at 5 µM [1, 11]: 4.7%

SMILES: FC(F)c1nc2ccccc2n1-c1nc(N2CCOCC2)nc(N2CCOCC2)n1 [ZSTK474]
- IC50 (class I PI3K): 37 nM
- inhibition of growth at 5 µM ([1]; read-out: Parasite inhibition (%) mean, preliminary screen, mean): 49.8%

SMILES: CCNC1(C(N)=O)CCN(c2ncnc3c2nc(-c2ccccc2Cl)n3-c2ccc(Cl)cc2)CC1 [Otenabant (CP-945598) HCl]
- Ki [3]: 0.7 nM
- inhibition of growth at 5 µM [1, 11]: 0.3%

SMILES: CNCc1cc(-c2ccccc2F)n(S(=O)(=O)c2cccnc2)c1 [TAK-438]
- inhibition of growth at 5 µM [1, 11]: -9.6%
- IC50 (gastric H+, K+-ATPase): 19 nM

SMILES: O=N[O-].[Na+] [Sodium Nitrite]
- Parasite inhibition (%) mean [4]: 49.5%
- IC50 (myeloperoxidase): 1300 nM

SMILES: Cc1ccc2c(c1)C(=O)[C@]1(O)CCN(c3ccccc3)C1=N2 [(−)-Blebbistatin]
- inhibition of growth at 5 µM [1, 11]: -56.7%
- IC50 [5]: 500 to 5000 nM

SMILES: CC(C)[C@H]1C(=O)N[C@@H](CCCNC(=N)N)C(=O)NCC(=O)N[C@@H](CC(=O)O)C(=O)N[C@H](Cc2ccccc2)C(=O)N1C [Cilengitide (EMD 121974, NSC 707544)]
- Parasite inhibition (%) mean ([4]; 72 h, 5 μM): 4.9%
- IC50 (αvβ5 receptor): 79 nM

SMILES: N#Cc1cc(CN2CCC(Nc3ncnc4sc(Cl)cc34)CC2)ccc1F [PRX-08066]
- IC50 (5-HT2B): 3.4 nM
- inhibition of growth at 5 µM [1, 11]: 40.5%

SMILES: COc1cc2nccc(Oc3ccc(NC(=O)C4(C(=O)Nc5ccc(F)cc5)CC4)cc3)c2cc1OC [Cabozantinib malate]
- IC50 (VEGFR-2): 0.035 nM
- IC50 (Flt-4): 6 nM
- inhibition of growth at 5 µM [1, 11]: 80.4%
- IC50 (Flt-1): 12 nM
- viability at 72 h (in vitro): 43.1%

SMILES: Oc1ccc(OC2CCCCO2)cc1 (stereo not drawn) [Deoxyarbutin]
- IC50 (tyrosinase): 50 nM
- inhibition of growth at 5 µM [1, 11]: 33.4%

SMILES: COc1ccc(CN=c2[nH]c(N3CCC[C@H]3CO)ncc2C(=O)NCc2ncccn2)cc1Cl [Avanafil]
- inhibition of growth at 5 µM [1, 11]: 7.5%
- IC50 (PDE5): 1 nM

SMILES: N[C@@]1(C(=O)O)CS(=O)(=O)[C@H]2[C@H](C(=O)O)[C@H]21 [LY2140023 (LY404039)]
- Ki (recombinant human mGlu2): 149 nM
- Ki [6]: 92 nM
- inhibition of growth at 5 µM [1, 11]: 2.9%
- Ki [7]: 88 nM

SMILES: O=C(O)c1cccc(-c2noc(-c3ccccc3F)n2)c1 [PTC124 (Ataluren)]
- inhibition of growth at 5 µM [1, 11]: -0.1%
- EC50 (nonsense mutation): ~100 nM

SMILES: COC1CCN(C(=O)c2cc(Cc3n[nH]c(=O)c4ccccc34)ccc2F)CC1 [AZD2461]
- inhibition of growth at 5 µM [1, 11]: 11%
- P-glycoprotein substrate property (P-glycoprotein): AZD2461 is a poor P-glycoprotein substrate with lower affinity for Pgp than does olaparib.

SMILES: CCCCCCCCc1ccc(CCC(N)(CO)CO)cc1 [Fingolimod (FTY720)]
- inhibition of growth at 5 µM [1, 11]: 10%
- IC50 (S1P): 0.033 nM

SMILES: O=C1NC(=O)/C(=C\c2cccc(C(F)(F)F)c2)S1 [SMI-4a]
- inhibition of growth at 5 µM [1, 11]: 8.9%
- IC50 (Pim1): 17 nM

SMILES: C[C@H](Nc1ncnc2[nH]cnc12)c1cc2cccc(Cl)c2c(=O)n1-c1ccccc1 [IPI-145 (INK1197)]
- inhibition of growth at 5 µM [1, 11]: 1.9%
- IC50 (PI3Kγ): 50 nM

SMILES: CCN(CC)CCOC(=O)c1ccc(N)cc1 [Procaine (Novocaine) HCl]
- IC50 [8]: 296000 nM
- inhibition of growth at 5 µM [1, 11]: 3.7%
- IC50 (nAChR): 45500 nM
- IC50 (sodium channel): 60000 nM
- Kd (5-HT3): 1700 nM

SMILES: O=C(O[C@H]1C[N+]2(CCCOc3ccccc3)CCC1CC2)C(O)(c1cccs1)c1cccs1 [Aclidinium Bromide]
- Ki (human muscarinic AChR M2): 0.14 nM
- Ki (human muscarinic AChR M3): 0.14 nM
- Ki (human muscarinic AChR M1): 0.1 nM
- Ki (human muscarinic AChR M4): 0.21 nM
- inhibition of growth at 5 µM ([1]; read-out: Parasite inhibition (%) mean): 1.8%
- Ki (human muscarinic AChR M5): 0.16 nM

SMILES: CC(C)N(CCC(=O)c1ccc2ccccc2c1)Cc1ccccc1 [ZM 39923 HCl]
- IC50 (JAK3): 7100 nM
- IC50 [9]: 5600 nM
- inhibition of growth at 5 µM [1, 11]: 13.9%
- IC50 (TGM2): 10 nM
- IC50 (JAK1): 4400 nM

SMILES: COc1cc2ncnc(Oc3cccc(NC(=O)Nc4cc(C(C)(C)C(F)(F)F)on4)c3)c2cc1OC [CEP-32496]
- inhibition of growth at 5 µM [1, 11]: 0%
- IC50 (B-Raf): 36 nM
- IC50 (CSF-1R): 9 nM
- IC50 (c-Raf): 39 nM
- IC50 (Abl): 3 nM

SMILES: O=C(O)CCNc1cc(N2CCc3ccccc3CC2)nc(-c2ccccn2)n1 [GSK J1]
- IC50 [10]: 60 nM
